Laboratory results reported in US20260356819A1, “OXOISOINDOLINYL-SUBSTITUTED […] DERIVATIVE AND USE THEREOF” (GLUETACS THERAPEUTICS (SHANGHAI) CO., LTD., priority 2023, published 2026).

Assays:
Format in all cases: cell-based
Conditions in all cases: compounds at 50 nM and 500 nM
[1] = target: T1, GSPT1 (Homo sapiens, UniProt P15170+Q96SW2); assay: Western blot degradation of GSPT1 in hPBMCs (24 h)
T1 construct: The supernatant was aspirated as the extracted total cell protein; endogenous in cells; host or cells: human peripheral blood mononuclear cells (hPBMCs)
T1 sequence (P15170 whole entry): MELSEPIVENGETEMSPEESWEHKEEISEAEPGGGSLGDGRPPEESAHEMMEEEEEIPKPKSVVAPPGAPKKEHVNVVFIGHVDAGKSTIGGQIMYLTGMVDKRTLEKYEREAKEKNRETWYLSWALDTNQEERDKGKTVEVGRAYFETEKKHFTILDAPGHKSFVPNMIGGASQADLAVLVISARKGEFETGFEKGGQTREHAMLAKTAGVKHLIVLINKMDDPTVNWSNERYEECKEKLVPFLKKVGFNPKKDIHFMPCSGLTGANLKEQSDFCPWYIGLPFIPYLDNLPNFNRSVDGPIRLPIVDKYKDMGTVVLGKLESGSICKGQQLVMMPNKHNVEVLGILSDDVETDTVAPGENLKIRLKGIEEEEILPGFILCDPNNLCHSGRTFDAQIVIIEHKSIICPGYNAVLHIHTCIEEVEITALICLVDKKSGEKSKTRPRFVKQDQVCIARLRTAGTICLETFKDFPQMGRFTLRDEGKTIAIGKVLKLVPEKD
T1 sequence (Q96SW2 whole entry): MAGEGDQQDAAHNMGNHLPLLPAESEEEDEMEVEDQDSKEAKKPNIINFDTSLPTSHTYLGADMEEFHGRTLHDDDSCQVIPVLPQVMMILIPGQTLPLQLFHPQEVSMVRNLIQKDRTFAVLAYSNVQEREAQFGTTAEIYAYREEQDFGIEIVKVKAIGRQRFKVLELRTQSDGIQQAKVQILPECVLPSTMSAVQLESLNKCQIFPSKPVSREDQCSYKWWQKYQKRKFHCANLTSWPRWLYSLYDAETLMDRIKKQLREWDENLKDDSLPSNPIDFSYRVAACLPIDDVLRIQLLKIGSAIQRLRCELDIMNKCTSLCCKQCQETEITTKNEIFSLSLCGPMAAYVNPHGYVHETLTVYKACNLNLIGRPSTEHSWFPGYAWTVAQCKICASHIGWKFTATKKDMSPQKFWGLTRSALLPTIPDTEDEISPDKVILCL
T1 sequence (Q16531 whole entry partner): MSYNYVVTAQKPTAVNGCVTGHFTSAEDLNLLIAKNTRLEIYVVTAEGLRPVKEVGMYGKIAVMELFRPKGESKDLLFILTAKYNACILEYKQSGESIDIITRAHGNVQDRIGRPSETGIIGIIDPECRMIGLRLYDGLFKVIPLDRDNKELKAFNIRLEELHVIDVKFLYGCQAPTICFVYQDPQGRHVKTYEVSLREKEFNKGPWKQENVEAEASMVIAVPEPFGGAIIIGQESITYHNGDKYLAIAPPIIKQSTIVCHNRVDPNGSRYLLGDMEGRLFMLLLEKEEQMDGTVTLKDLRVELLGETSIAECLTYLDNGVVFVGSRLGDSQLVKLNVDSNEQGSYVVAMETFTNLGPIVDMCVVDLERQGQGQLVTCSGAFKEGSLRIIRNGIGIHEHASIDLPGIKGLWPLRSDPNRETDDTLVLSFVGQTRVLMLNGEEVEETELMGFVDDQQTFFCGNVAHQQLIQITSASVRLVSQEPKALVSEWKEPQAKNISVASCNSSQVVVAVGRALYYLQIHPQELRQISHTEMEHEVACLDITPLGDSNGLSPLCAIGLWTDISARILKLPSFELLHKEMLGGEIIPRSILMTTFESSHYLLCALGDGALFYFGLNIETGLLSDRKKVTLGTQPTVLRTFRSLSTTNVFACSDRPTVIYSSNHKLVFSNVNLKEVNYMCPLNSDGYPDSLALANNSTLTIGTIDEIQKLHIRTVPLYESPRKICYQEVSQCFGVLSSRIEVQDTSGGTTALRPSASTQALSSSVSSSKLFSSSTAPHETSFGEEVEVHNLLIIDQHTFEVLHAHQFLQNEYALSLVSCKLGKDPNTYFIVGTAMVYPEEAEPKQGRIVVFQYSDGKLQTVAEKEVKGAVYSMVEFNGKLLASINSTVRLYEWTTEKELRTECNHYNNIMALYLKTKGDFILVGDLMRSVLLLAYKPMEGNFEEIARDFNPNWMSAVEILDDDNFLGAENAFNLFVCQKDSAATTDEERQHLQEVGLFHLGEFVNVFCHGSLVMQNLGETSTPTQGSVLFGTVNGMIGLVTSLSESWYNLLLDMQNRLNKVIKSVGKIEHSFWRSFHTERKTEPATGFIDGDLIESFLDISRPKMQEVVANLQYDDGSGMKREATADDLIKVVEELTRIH
Outline: (§1)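 Degradation in primary human PBMCs after 24 h compound exposure at 50 and 500 nM. Western blot band intensities, normalised to an internal control protein, expressed as % protein remaining relative to DMSO.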

[2] = target: T2, IKZF1 (Homo sapiens, UniProt Q13422+Q96SW2); assay: Western blot degradation of IKZF1 in hPBMCs (24 h)
T2 construct: The supernatant was aspirated as the extracted total cell protein; endogenous in cells; host or cells: human peripheral blood mononuclear cells (hPBMCs)
T2 sequence (Q13422 whole entry): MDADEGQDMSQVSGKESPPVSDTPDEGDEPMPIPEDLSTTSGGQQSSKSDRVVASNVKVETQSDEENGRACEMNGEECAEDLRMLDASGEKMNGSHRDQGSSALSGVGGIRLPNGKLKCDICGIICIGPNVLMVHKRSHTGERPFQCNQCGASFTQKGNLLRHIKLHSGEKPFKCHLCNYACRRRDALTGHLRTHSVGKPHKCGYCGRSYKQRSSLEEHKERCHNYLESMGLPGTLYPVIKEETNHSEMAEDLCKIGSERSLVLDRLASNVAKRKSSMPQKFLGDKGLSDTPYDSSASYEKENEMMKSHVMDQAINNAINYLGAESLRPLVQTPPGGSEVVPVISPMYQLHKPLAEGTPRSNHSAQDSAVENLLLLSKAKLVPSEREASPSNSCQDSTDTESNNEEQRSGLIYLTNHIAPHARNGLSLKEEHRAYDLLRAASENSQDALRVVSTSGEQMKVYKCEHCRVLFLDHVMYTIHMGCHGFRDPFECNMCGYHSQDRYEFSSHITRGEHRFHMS
T2 sequence (Q96SW2 whole entry): as the sequence (Q96SW2 whole entry) above
T2 sequence (Q16531 whole entry partner): as the sequence (Q16531 whole entry partner) above
Outline: as §1

[3] = target: T3, IKZF3 (Homo sapiens, UniProt Q96SW2+Q9UKT9); assay: Western blot degradation of IKZF3 in hPBMCs (24 h)
T3 construct: The supernatant was aspirated as the extracted total cell protein; endogenous in cells; host or cells: human peripheral blood mononuclear cells (hPBMCs)
T3 sequence (Q9UKT9 whole entry): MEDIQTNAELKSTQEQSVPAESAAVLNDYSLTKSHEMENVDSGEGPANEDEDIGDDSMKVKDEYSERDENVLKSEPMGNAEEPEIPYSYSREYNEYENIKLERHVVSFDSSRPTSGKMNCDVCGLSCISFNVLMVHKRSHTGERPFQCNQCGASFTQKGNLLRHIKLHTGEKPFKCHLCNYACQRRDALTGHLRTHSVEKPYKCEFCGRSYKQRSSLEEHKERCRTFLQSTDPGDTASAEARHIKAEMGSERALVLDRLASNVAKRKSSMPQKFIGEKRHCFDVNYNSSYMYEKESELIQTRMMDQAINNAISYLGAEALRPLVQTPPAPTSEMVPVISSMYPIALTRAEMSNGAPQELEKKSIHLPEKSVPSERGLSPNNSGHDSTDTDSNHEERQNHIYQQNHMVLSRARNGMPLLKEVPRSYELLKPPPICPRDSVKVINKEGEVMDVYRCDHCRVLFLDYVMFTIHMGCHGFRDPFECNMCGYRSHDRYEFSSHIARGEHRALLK
T3 sequence (Q96SW2 whole entry): as the sequence (Q96SW2 whole entry) above
T3 sequence (Q16531 whole entry partner): as the sequence (Q16531 whole entry partner) above
Outline: as §1

[4] = target: T4, WEE1 (Homo sapiens, UniProt P30291+Q96SW2); assay: Western blot degradation of WEE1 in hPBMCs (24 h)
T4 construct: The supernatant was aspirated as the extracted total cell protein; endogenous in cells; host or cells: human peripheral blood mononuclear cells (hPBMCs)
Outline: as §1

[5] = target: T5, IKZF2 (Homo sapiens, UniProt Q96SW2+Q9UKS7); assay: Western blot degradation of IKZF2 in hPBMCs (24 h)
T5 construct: The supernatant was aspirated as the extracted total cell protein; endogenous in cells; host or cells: human peripheral blood mononuclear cells (hPBMCs)
T5 sequence (Q9UKS7 whole entry): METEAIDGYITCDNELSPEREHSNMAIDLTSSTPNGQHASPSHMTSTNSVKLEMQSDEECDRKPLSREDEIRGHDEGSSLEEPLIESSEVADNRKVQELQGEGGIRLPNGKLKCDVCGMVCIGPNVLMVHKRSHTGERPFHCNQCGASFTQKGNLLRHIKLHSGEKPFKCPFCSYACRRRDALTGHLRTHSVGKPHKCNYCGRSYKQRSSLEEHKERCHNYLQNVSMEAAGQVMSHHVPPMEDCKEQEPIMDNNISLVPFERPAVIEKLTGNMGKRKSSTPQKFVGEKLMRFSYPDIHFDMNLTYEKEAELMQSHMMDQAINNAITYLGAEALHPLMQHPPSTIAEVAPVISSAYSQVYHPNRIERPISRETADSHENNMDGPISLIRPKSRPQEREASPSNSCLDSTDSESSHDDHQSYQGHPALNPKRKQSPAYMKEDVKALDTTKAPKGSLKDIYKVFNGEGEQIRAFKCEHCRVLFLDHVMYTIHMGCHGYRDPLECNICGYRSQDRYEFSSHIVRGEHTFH
T5 sequence (Q96SW2 whole entry): as the sequence (Q96SW2 whole entry) above
T5 sequence (Q16531 whole entry partner): as the sequence (Q16531 whole entry partner) above
Outline: as §1

[6] = target: T6, CK1α (Homo sapiens, UniProt P48729+Q96SW2); assay: Western blot degradation of CK1α in hPBMCs (24 h)
T6 construct: The supernatant was aspirated as the extracted total cell protein; endogenous in cells; host or cells: human peripheral blood mononuclear cells (hPBMCs)
T6 sequence (P48729 whole entry): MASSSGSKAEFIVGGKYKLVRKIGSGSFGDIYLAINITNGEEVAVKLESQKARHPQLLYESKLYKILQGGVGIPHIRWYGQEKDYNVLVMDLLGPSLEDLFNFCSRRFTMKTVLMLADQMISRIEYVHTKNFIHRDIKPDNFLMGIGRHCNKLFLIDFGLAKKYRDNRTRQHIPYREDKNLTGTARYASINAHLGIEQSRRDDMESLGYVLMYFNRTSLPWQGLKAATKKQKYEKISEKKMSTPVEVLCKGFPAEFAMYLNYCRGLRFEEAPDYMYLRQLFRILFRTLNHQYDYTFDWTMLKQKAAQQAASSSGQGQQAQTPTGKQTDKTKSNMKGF
T6 sequence (Q96SW2 whole entry): as the sequence (Q96SW2 whole entry) above
T6 sequence (Q16531 whole entry partner): as the sequence (Q16531 whole entry partner) above
Outline: as §1

Row | SMILES | GSPT1 substrate protein remaining % [1] | IKZF1 substrate protein remaining % [2] | IKZF3 substrate protein remaining % [3] | WEE1 substrate protein remaining % [4] | IKZF2 substrate protein remaining % [5] | CK1α substrate protein remaining % [6]
1 | O=C1CCN(N2C(=O)c3ccc(CN4CC=C(c5cccc(F)c5Cl)CC4)cc3C2=O)C(=O)N1 [GT-06896, 5-((4-(2-chloro-3-fluorophenyl)-3,6-dihydropyridin-1(2H)-yl)methyl)-2-(2,4-dioxotetrahydropyrimidin-1(2H)-yl)isoindoline-1,3-dione] | B (80%< substrate protein remaining % ≤100%) | A (0% ≤ substrate protein remaining % ≤80%) | B (80%< substrate protein remaining % ≤100%) | B (80%< substrate protein remaining % ≤100%) | B (80%< substrate protein remaining % ≤100%) | B (80%< substrate protein remaining % ≤100%)
2 | O=C1CCN(N2C(=O)c3ccc(CN4CCN(c5ccc(F)cn5)CC4)cc3C2=O)C(=O)N1 [GT-06965, 2-(2,4-dioxotetrahydropyrimidin-1(2H)-yl)-5-((4-(5-fluoropyridin-2-yl)piperazin-1-yl)methyl)isoindoline-1,3-dione] | B (80%< substrate protein remaining % ≤100%) | B (80%< substrate protein remaining % ≤100%) | B (80%< substrate protein remaining % ≤100%) | B (80%< substrate protein remaining % ≤100%) | A (0% ≤ substrate protein remaining % ≤80%) | B (80%< substrate protein remaining % ≤100%)
3 | O=C1CCN(N2C(=O)c3ccc(CN4CCN(c5ccc(C(F)(F)F)cn5)CC4)cc3C2=O)C(=O)N1 [GT-06968, 2-(2,4-dioxotetrahydropyrimidin-1(2H)-yl)-5-((4-(5-(trifluoromethyl)pyridin-2-yl)piperazin-1-yl)methyl)isoindoline-1,3-dione] | B (80%< substrate protein remaining % ≤100%) | B (80%< substrate protein remaining % ≤100%) | B (80%< substrate protein remaining % ≤100%) | A (0% ≤ substrate protein remaining % ≤80%) | A (0% ≤ substrate protein remaining % ≤80%) | B (80%< substrate protein remaining % ≤100%)
4 | O=C1CCN(N2C(=O)c3ccc(CN4CCN(c5ncc(Cl)cc5Cl)CC4)cc3C2=O)C(=O)N1 [GT-06969, 5-((4-(3,5-dichloropyridin-2-yl)piperazin-1-yl)methyl)-2-(2,4-dioxotetrahydropyrimidin-1(2H)-yl)isoindoline-1,3-dione] | B (80%< substrate protein remaining % ≤100%) | B (80%< substrate protein remaining % ≤100%) | B (80%< substrate protein remaining % ≤100%) | A (0% ≤ substrate protein remaining % ≤80%) | A (0% ≤ substrate protein remaining % ≤80%) | B (80%< substrate protein remaining % ≤100%)
5 | O=C1CCN(N2C(=O)c3ccc(CN4CCN(c5nccc(I)c5F)CC4)cc3C2=O)C(=O)N1 [GT-06970, 2-(2,4-dioxotetrahydropyrimidin-1(2H)-yl)-5-((4-(3-fluoro-4-iodopyridin-2-yl)piperazin-1-yl)methyl)isoindoline-1,3-dione] | B (80%< substrate protein remaining % ≤100%) | B (80%< substrate protein remaining % ≤100%) | B (80%< substrate protein remaining % ≤100%) | A (0% ≤ substrate protein remaining % ≤80%) | A (0% ≤ substrate protein remaining % ≤80%) | B (80%< substrate protein remaining % ≤100%)
6 | O=C1CCN(N2C(=O)c3ccc(CN4CCN(c5cccnc5)CC4)cc3C2=O)C(=O)N1 [GT-06971, 2-(2,4-dioxotetrahydropyrimidin-1(2H)-yl)-5-((4-(pyridin-3-yl)piperazin-1-yl)methyl)isoindoline-1,3-dione] | B (80%< substrate protein remaining % ≤100%) | B (80%< substrate protein remaining % ≤100%) | B (80%< substrate protein remaining % ≤100%) | A (0% ≤ substrate protein remaining % ≤80%) | A (0% ≤ substrate protein remaining % ≤80%) | B (80%< substrate protein remaining % ≤100%)
7 | O=C1CCN(N2C(=O)c3ccc(CN4CCN(c5cncc(Cl)c5Cl)CC4)cc3C2=O)C(=O)N1 [GT-06972, 5-((4-(4,5-dichloropyridin-3-yl)piperazin-1-yl)methyl)-2-(2,4-dioxotetrahydropyrimidin-1(2H)-yl)isoindoline-1,3-dione] | B (80%< substrate protein remaining % ≤100%) | B (80%< substrate protein remaining % ≤100%) | B (80%< substrate protein remaining % ≤100%) | A (0% ≤ substrate protein remaining % ≤80%) | A (0% ≤ substrate protein remaining % ≤80%) | B (80%< substrate protein remaining % ≤100%)
8 | O=C1CCN(N2C(=O)c3ccc(CN4CCN(c5c(Cl)ccnc5Cl)CC4)cc3C2=O)C(=O)N1 [GT-06973, 5-((4-(2,4-dichloropyridin-3-yl)piperazin-1-yl)methyl)-2-(2,4-dioxotetrahydropyrimidin-1(2H)-yl)isoindoline-1,3-dione] | B (80%< substrate protein remaining % ≤100%) | A (0% ≤ substrate protein remaining % ≤80%) | A (0% ≤ substrate protein remaining % ≤80%) | A (0% ≤ substrate protein remaining % ≤80%) | B (80%< substrate protein remaining % ≤100%) | B (80%< substrate protein remaining % ≤100%)
9 | O=C1CCN(N2Cc3cc(CN4CCN(c5c(Cl)ccnc5Cl)CC4)ccc3C2=O)C(=O)N1 [GT-06974, 1-(5-((4-(2,4-dichloropyridin-3-yl)piperazin-1-yl)methyl)-1-oxoisoindolin-2-yl)dihydropyrimidine-2,4(1H,3H)-dione] | B (80%< substrate protein remaining % ≤100%) | A (0% ≤ substrate protein remaining % ≤80%) | A (0% ≤ substrate protein remaining % ≤80%) | A (0% ≤ substrate protein remaining % ≤80%) | B (80%< substrate protein remaining % ≤100%) | B (80%< substrate protein remaining % ≤100%)
10 | O=C1CCN(N2C(=O)c3ccc(CN4CCN(c5ccc(Cl)nc5)CC4)cc3C2=O)C(=O)N1 [GT-07027, 5-((4-(6-chloropyridin-3-yl)piperazin-1-yl)methyl)-2-(2,4-dioxotetrahydropyrimidin-1(2H)-yl)isoindoline-1,3-dione] | A (0% ≤ substrate protein remaining % ≤80%) | B (80%< substrate protein remaining % ≤100%) | B (80%< substrate protein remaining % ≤100%) | A (0% ≤ substrate protein remaining % ≤80%) | B (80%< substrate protein remaining % ≤100%) | B (80%< substrate protein remaining % ≤100%)
11 | O=C1CCN(N2Cc3cc(CN4CCN(c5ncnc(Cl)c5Cl)CC4)ccc3C2=O)C(=O)N1 [GT-07028, 1-(5-((4-(5,6-dichloropyrimidin-4-yl)piperazin-1-yl)methyl)-1-oxoisoindolin-2-yl)dihydropyrimidine-2,4(1H,3H)-dione] | A (0% ≤ substrate protein remaining % ≤80%) | B (80%< substrate protein remaining % ≤100%) | B (80%< substrate protein remaining % ≤100%) | A (0% ≤ substrate protein remaining % ≤80%) | B (80%< substrate protein remaining % ≤100%) | B (80%< substrate protein remaining % ≤100%)
